Series [1] concerns the target H5N1 neuraminidase (A/Anhui/2005) (Influenza A virus (H5N1), UniProt A0A0C5AGB3). Put plainly: biochemical. The series is classed as biochemical, influenza A H5N1 (A/Anhui/2005). The conditions noted are these: for inhibition at 10 µM / inhibition at 100 µM: read-out: inhibition rate against NA from H5N1 subtype.
Series [2] concerns NAs from H5N1 (A/Chicken/China/1220/2012). To be noted: read-out: IC50 against NAs from H5N1; cited from earlier work.
A short description of series [3]: Metabolic stability in human liver microsomes in vitro. The conditions noted are these: for Remaining (T = 60 min): human liver microsomes 0.5 mg/mL, 37 °C, 60 min incubation; for half-life: human, liver microsomes. For orientation: Microsomes from liver hold many membrane-bound enzymes, among them those of drug oxidation.
Series [4] has as its system mutant NAs. The conditions noted are these: cited from earlier work.
For series [5], the target named is neuraminidase. To be noted: cited from earlier work.

`CCC(CC)O[C@@H]1C=C(C(=O)O)C[C@H](NS(=O)(=O)c2cccc(N)c2)[C@H]1NC(C)=O` [6j, (3R, 4R, 5S)-4-acetamido-5-((3-aminophenyl)sulfonyl)amino-3-(pentan-3-yloxy)cyclohex-1-enecarboxylic acid] showed a melting point of 177.4 to 178.1 °C. In series [1], the inhibition at 10 µM turned out to be 37.3% and the inhibition at 100 µM worked out at 52.7%.
Take `CCC(CC)O[C@@H]1C=C(C(=O)O)C[C@H](N)[C@H]1NC(C)=O` [OC, oseltamivir carboxylate, reference compound]: the “inhibition rate against NA from H5N1 subtype” value worked out at 91.0% in series [1] (10 µM) and 95.0% in series [1] (100 µM).
The compound `CCC(CC)O[C@@H]1C=C(C(=O)O)C[C@H](NS(=O)(=O)c2ccccc2N)[C@H]1NC(C)=O` [6i, (3R, 4R, 5S)-4-acetamido-5-((2-aminophenyl)sulfonyl)amino-3-(pentan-3-yloxy)cyclohex-1-enecarboxylic acid] displayed a melting point of 161.8 to 164 °C. For the same compound, in series [1], the inhibition at 10 µM worked out at 63.8% and the inhibition at 100 µM came out at 86.6%.
As to `CCC(CC)O[C@@H]1C=C(C(=O)O)C[C@H](NCc2ccc(-c3cccs3)cc2)[C@H]1NC(C)=O` [B], in series [2], the IC50 was 2.1 nM.
In the case of `CCC(CC)O[C@@H]1C=C(C(=O)O)C[C@H](NCc2ccc(-c3ccccc3)cc2)[C@H]1NC(C)=O` [A], the IC50 in series [2] was 1.9 nM.
As to `CCC(CC)O[C@@H]1C=C(C(=O)O)C[C@H](NS(=O)(=O)c2ccccc2[N+](=O)[O-])[C@H]1NC(C)=O` [4i, (3R, 4R, 5S)-4-acetamido-5-((2-nitrophenyl)sulfonyl)amino-3-(pentan-3-yloxy)cyclohex-1-enecarboxylic acid], in series [1], the inhibition at 10 µM came to 32% and the inhibition at 100 µM was 70.1%.
As for `O=C(O)Cc1ccccc1Nc1c(Cl)cccc1Cl` [Diclofenac, diclofenac], in series [3], the “Remaining (T = 60 min)” value is recorded as 1.1% and the half-life was 9.2 min.
The compound `CCC(CC)O[C@@H]1C=C(C(=O)O)C[C@H](NS(=O)(=O)C(F)(F)F)[C@H]1NC(C)=O` [4f, (3R, 4R, 5S)-4-acetamido-5-((trifluoromethyl)sulfonyl)amino-3-(pentan-3-yloxy)cyclohex-1-enecarboxylic acid] came in with a melting point of 193.1 to 195.4 °C. For the same compound, in series [1], the inhibition at 10 µM was 24.8% and the inhibition at 100 µM is 49.7%.
For the compound `C[C@]12CC[C@H]3[C@@H](CCC4=CC(=O)CC[C@@]43C)[C@@H]1CC[C@@H]2O` [Testosterone, testosterone], in series [3], the “Remaining (T = 60 min)” value was 3.8% and the half-life turned out to be 12.5 min.
As for `CCC(CC)O[C@@H]1C=C(C(=O)O)C[C@H](NS(=O)(=O)c2ccc(C(F)(F)F)cc2)[C@H]1NC(C)=O` [4h, (3R, 4R, 5S)-4-acetamido-5-((4-(trifluoromethyl)phenyl)sulfonyl)amino-3-(pentan-3-yloxy)cyclohex-1-enecarboxylic acid], in series [1], the inhibition at 10 µM was 40.4% and the inhibition at 100 µM turned out to be 79.2%.
Take `CCC(CC)O[C@@H]1C=C(C(=O)O)C[C@H](NS(=O)(=O)CC)[C@H]1NC(C)=O` [4b, (3R, 4R, 5S)-4-acetamido-5-(ethylsulfonyl)amino-3-(pentan-3-yloxy)cyclohex-1-enecarboxylic acid]: the melting point lay in the range of 187.7 to 190 °C. Also, in series [1], the inhibition at 10 µM is 50.3% and the inhibition at 100 µM was 85.1%.
Turning to `CCC(CC)O[C@@H]1C=C(C(=O)O)C[C@H](NS(=O)(=O)c2ccc(NC(C)=O)cc2)[C@H]1NC(C)=O` [4g, (3R, 4R, 5S)-4-acetamido-5-((4-(acetamido)pheny)sulfonyl)amino-3-(pentan-3-yloxy)cyclohex-1-enecarboxylic acid], the melting point lay in the range of 236.7 to 238.6 °C. Besides, in series [1] (100 µM), the “inhibition rate against NA from H5N1 subtype” value is reported as “little inhibition”.
As to `CCCCCS(=O)(=O)N[C@H]1CC(C(=O)O)=C[C@@H](OC(CC)CC)[C@@H]1NC(C)=O` [4e, (3R, 4R, 5S)-4-acetamido-5-(n-pentylsulfonyl)amino-3-(pentan-3-yloxy)cyclohex-1-enecarboxylic acid], the melting point was 179.1 to 182.8 °C. In series [1], the inhibition at 10 µM worked out at 28.5% and the inhibition at 100 µM was 50.5%.
In the same order, the values of `CCC(CC)O[C@@H]1C=C(C(=O)O)C[C@H](NS(=O)(=O)c2cccc([N+](=O)[O-])c2)[C@H]1NC(C)=O` [4j, (3R, 4R, 5S)-4-acetamido-5-((3-nitrophenyl)sulfonyl)amino-3-(pentan-3-yloxy)cyclohex-1-enecarboxylic acid] are 114.3 to 115.9 °C, 20.3% and 33.8%.
`CCCS(=O)(=O)N[C@H]1CC(C(=O)O)=C[C@@H](OC(CC)CC)[C@@H]1NC(C)=O` [4c, (3R, 4R, 5S)-4-acetamido-5-(n-propylsulfonyl)amino-3-(pentan-3-yloxy)cyclohex-1-enecarboxylic acid] gave a melting point of 196.3 to 198.6 °C. In addition, in series [1], the inhibition at 10 µM amounted to 43.2% and the inhibition at 100 µM came to 56.5%.
Take `CCC(CC)O[C@@H]1C=C(C(=O)O)C[C@H](NC(C)=O)[C@H]1NC(C)=O` [D]: the “inhibitory activities against mutant NAs” value in series [4] is reported as “enhanced inhibitory activities”.
As to `CCC(CC)O[C@@H]1C=C(C(=O)O)C[C@H](NS(C)(=O)=O)[C@H]1NC(C)=O` [4a, (3R, 4R, 5S)-4-acetamido-5-(methylsulfonyl)amino-3-(pentan-3-yloxy) cyclohex-1-enecarboxylic acid], in series [3], the “Remaining (T = 60 min)” value stood at 101.6% and the half-life is above 145 min. Moreover, in series [1], the inhibition at 10 µM turned out to be 73.9% and the inhibition at 100 µM was determined as 91.8%.
Compound `CCC(CC)O[C@@H]1C=C(C(=O)O)C[C@H](NS(=O)(=O)c2ccc(N)cc2)[C@H]1NC(C)=O` [6k, (3R, 4R, 5S)-4-acetamido-5-((4-aminophenyl)sulfonyl)amino-3-(pentan-3-yloxy)cyclohex-1-enecarboxylic acid] registered a melting point of 176.7 to 181.4 °C. Further, in series [1], the inhibition at 100 µM stood at 12.5%.
On to `CCC(CC)O[C@@H]1C=C(C(=O)O)C[C@H](NS(=O)(=O)c2ccc([N+](=O)[O-])cc2)[C@H]1NC(C)=O` [4k, (3R, 4R, 5S)-4-acetamido-5-((4-nitrophenyl)sulfonyl)amino-3-(pentan-3-yloxy)cyclohex-1-enecarboxylic acid], for which the melting point fell in the range of 187.4 to 189.2 °C. For the same compound, in series [1], the inhibition at 10 µM was 0.5% and the inhibition at 100 µM stood at 38.9%.
`CCC(CC)O[C@@H]1CC(C(=O)O)=C[C@H](n2cc(C(O)CC)nn2)[C@H]1NC(C)=O` (stereo partly shown) [C]: the Ki in series [5] was 72 nM.
Compound `CCCCS(=O)(=O)N[C@H]1CC(C(=O)O)=C[C@@H](OC(CC)CC)[C@@H]1NC(C)=O` [4d, (3R, 4R, 5S)-4-acetamido-5-(n-butylsulfonyl)amino-3-(pentan-3-yloxy) cyclohex-1-enecarboxylic acid] yielded a melting point of 183.3 to 184.4 °C. Also, in series [1], the inhibition at 10 µM stood at 30.3% and the inhibition at 100 µM came out at 53.5%.

A word on the melting point: it is the temperature, or range, at which the solid turns liquid. As usually defined, the inhibition is how much of the control response was suppressed. For orientation: IC50 means the concentration that gives 50% inhibition. Broadly, the half-life is how long it takes for the measured level to halve. Low readings indicate fast loss, high ones slow loss. Broadly, the Ki is the dissociation constant of the complex between target and ligand, obtained from inhibition or displacement.

The record behind these values is publication PMC6600469, “Synthesis and Biological Evaluation of NH2-Sulfonyl Oseltamivir Analogues as Influenza Neuraminidase Inhibitors” (Molecules, 2019).
